Data reported in patent US20230257396A1, “MACROCYCLES AND THEIR USE” (BLOSSOMHILL THERAPEUTICS, INC., priority 2020, published 2023).
Residue numbers refer to the chain shown, from its start.

How the values were obtained:
Assay in all cases: KINOMEscan kinase binding assay (Eurofins/DiscoveRx), % Ctrl
kinases [1] = target: T1, kinases (Homo sapiens, UniProt P17948); details: 1 μM; FLT1
T1 construct: purchased Eurofins/DiscoveRx; host or cells: E. coli BL21-derived host (T7 phage display) for most kinases; HEK-293 for the rest
Method: (§1) Kinase binding assays were performed at Eurofins/DiscoveRx using the general KINOMEscan Protocol (Fabian, M. A. et al., “A small molecule-kinase interaction map for clinical kinase inhibitors,” Nat. Biotechnol. 2005, 23(3):329-36). For most assays, kinase-tagged T7 phage strains were prepared in an E. coli host derived from the BL21 strain. E. coli were grown to log-phase and infected with T7 phage and incubated with shaking at 32° C. until lysis. The lysates were centrifuged and filtered to remove cell debris. The remaining kinases were produced in HEK-293 cells and subsequently tagged with DNA for qPCR detection. Streptavidin-coated magnetic beads were treated with biotinylated small molecule ligands for 30 minutes at room temperature to generate affinity resins for kinase assays. The liganded beads were blocked with excess biotin and washed with blocking buffer (SeaBlock (Pierce), 1% BSA, 0.05% Tween 20, 1 mM DTT) to remove unbound ligand and to reduce nonspecific binding. Binding reactions were assembled by combining kinases, liganded affinity beads, and test compounds in 1×binding buffer (20% SeaBlock, 0.17×PBS, 0.05% Tween 20, 6 mM DTT). All reactions were performed in polystyrene 96-well plates in a final volume of 0.135 mL. The assay plates were incubated at room temperature with shaking for 1 hour and the affinity beads were washed with washbuffer (1×PBS, 0.05% Tween 20). The beads were then re-suspended in elution buffer (1× PBS, 0.05% Tween 20, 0.5 μM non-biotinylated affinity ligand) and incubated at room temperature with shaking for 30 minutes. The kinase concentration in the eluates was measured by qPCR. Results for compounds tested in this assay at a given concentration are reported as “% Ctrl”, where lower numbers indicate stronger binding in the matrix.
(§2) (test compound signal-positive control signal)/(negative control signal-positive control signal) X100

kinases [2] = target: T2, kinases (Homo sapiens, UniProt P10721, V559D/V654A); details: 1 μM; KIT(V559D, V654A)
T2 construct: purchased Eurofins/DiscoveRx; host or cells: E. coli BL21-derived host (T7 phage display) for most kinases; HEK-293 for the rest
Method: as §1, §2

kinases [3] = target: T3, kinases (Homo sapiens, UniProt P36888); details: 1 μM
T3 construct: purchased Eurofins/DiscoveRx; host or cells: E. coli BL21-derived host (T7 phage display) for most kinases; HEK-293 for the rest
T3 sequence (P36888 27-993): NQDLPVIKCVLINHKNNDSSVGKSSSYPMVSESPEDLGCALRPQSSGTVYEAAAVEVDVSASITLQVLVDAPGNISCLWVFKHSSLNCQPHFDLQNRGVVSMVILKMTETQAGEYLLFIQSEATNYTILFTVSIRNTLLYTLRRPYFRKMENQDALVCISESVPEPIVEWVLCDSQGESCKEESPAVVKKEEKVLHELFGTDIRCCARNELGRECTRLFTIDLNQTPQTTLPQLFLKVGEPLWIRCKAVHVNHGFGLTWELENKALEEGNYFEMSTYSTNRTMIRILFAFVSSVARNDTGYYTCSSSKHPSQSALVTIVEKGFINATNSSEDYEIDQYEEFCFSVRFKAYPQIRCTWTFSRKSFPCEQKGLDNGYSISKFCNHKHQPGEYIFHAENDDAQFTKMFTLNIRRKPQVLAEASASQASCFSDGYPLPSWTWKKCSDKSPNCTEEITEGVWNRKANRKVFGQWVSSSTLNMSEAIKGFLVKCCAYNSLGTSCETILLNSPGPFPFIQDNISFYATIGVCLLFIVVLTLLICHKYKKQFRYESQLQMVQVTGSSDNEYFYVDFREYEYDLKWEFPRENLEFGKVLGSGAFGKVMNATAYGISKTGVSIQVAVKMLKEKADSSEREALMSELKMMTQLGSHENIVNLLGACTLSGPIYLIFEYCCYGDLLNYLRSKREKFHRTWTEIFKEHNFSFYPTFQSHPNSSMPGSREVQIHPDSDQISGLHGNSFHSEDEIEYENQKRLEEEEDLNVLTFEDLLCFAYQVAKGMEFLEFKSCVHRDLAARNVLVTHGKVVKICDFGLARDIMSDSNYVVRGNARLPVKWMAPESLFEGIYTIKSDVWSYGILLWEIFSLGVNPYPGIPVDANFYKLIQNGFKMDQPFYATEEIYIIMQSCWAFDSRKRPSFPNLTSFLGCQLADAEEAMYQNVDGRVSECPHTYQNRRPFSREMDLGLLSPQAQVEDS
Method: as §1, §2

kinases [4] = target: T4, kinases (Homo sapiens, UniProt P36888, R834Q); details: 1 μM; FLT3(R834Q)
T4 construct: purchased Eurofins/DiscoveRx; host or cells: E. coli BL21-derived host (T7 phage display) for most kinases; HEK-293 for the rest
T4 sequence (P36888 27-993 R834Q): T3 sequence (P36888 27-993) with R808Q
Method: as §1, §2

kinases [5] = target: T5, kinases (Homo sapiens, UniProt P09619); details: 1 μM; PDGFRB
T5 construct: purchased Eurofins/DiscoveRx; host or cells: E. coli BL21-derived host (T7 phage display) for most kinases; HEK-293 for the rest
Method: as §1, §2

kinases [6] = target: T6, kinases (Homo sapiens, UniProt P10721, T670I/V559D); details: 1 μM; KIT(V559D, T670I)
T6 construct: purchased Eurofins/DiscoveRx; host or cells: E. coli BL21-derived host (T7 phage display) for most kinases; HEK-293 for the rest
Method: as §1, §2

T5 sequence (P09619 33-1106): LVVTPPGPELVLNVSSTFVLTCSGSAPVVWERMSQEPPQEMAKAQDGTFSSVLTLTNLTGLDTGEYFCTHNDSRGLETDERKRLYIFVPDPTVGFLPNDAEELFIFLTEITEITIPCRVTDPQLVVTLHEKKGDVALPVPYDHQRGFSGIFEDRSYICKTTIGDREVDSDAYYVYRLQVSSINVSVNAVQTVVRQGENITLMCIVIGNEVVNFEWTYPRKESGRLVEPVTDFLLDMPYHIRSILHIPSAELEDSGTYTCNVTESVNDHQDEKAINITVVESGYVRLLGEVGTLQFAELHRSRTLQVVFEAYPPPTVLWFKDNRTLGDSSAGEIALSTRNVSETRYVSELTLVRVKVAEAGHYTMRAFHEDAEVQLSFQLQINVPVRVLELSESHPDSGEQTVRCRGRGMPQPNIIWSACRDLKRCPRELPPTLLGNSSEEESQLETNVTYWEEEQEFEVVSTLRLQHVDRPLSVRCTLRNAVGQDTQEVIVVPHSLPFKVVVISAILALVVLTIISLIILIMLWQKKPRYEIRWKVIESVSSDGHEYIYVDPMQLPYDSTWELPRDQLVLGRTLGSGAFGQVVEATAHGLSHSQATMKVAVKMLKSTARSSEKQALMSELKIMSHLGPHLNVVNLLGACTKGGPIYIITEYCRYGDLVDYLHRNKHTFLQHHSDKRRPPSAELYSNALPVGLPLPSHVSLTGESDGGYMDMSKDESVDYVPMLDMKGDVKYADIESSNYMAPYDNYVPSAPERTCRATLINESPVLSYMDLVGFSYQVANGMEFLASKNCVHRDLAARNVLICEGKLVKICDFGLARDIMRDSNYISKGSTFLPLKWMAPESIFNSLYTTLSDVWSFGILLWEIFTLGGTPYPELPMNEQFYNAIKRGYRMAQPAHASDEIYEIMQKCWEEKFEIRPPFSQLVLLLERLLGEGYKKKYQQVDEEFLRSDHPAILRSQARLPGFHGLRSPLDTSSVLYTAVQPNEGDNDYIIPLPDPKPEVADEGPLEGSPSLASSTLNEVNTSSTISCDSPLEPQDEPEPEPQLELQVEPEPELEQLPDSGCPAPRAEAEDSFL
T1 sequence (P17948 27-1338): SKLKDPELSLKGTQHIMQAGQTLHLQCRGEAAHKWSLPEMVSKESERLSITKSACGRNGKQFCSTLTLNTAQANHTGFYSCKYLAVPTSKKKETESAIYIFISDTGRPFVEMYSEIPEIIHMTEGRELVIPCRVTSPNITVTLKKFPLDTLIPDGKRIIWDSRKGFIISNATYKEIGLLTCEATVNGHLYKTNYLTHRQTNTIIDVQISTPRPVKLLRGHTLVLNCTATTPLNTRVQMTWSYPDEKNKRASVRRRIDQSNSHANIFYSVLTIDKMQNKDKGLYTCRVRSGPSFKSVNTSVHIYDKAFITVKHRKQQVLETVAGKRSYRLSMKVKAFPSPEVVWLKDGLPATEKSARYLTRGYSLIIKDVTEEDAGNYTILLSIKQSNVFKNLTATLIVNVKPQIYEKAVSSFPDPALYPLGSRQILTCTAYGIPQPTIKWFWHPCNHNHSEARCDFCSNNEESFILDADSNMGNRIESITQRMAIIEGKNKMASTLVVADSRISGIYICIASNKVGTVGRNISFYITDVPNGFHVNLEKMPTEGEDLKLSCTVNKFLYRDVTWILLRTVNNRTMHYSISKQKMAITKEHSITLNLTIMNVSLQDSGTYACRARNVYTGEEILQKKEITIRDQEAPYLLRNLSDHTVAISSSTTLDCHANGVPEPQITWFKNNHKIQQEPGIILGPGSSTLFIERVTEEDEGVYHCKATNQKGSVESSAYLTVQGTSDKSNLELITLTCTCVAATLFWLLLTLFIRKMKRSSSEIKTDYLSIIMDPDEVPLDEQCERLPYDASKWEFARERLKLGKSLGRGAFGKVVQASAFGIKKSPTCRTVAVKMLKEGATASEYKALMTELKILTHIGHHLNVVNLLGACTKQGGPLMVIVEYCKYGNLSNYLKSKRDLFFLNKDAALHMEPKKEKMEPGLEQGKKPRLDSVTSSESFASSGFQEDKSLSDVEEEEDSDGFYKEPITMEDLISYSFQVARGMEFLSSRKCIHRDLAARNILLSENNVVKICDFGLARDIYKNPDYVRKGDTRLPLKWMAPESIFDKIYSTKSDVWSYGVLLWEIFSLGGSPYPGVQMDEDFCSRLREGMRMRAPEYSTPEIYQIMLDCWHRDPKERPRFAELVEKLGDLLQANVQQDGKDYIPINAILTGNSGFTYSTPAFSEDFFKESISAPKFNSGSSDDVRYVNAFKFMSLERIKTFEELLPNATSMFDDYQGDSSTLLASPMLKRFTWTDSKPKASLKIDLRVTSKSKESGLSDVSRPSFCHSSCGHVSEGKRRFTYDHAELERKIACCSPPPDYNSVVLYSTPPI
T6 sequence (P10721 26-976 V559D/T670I): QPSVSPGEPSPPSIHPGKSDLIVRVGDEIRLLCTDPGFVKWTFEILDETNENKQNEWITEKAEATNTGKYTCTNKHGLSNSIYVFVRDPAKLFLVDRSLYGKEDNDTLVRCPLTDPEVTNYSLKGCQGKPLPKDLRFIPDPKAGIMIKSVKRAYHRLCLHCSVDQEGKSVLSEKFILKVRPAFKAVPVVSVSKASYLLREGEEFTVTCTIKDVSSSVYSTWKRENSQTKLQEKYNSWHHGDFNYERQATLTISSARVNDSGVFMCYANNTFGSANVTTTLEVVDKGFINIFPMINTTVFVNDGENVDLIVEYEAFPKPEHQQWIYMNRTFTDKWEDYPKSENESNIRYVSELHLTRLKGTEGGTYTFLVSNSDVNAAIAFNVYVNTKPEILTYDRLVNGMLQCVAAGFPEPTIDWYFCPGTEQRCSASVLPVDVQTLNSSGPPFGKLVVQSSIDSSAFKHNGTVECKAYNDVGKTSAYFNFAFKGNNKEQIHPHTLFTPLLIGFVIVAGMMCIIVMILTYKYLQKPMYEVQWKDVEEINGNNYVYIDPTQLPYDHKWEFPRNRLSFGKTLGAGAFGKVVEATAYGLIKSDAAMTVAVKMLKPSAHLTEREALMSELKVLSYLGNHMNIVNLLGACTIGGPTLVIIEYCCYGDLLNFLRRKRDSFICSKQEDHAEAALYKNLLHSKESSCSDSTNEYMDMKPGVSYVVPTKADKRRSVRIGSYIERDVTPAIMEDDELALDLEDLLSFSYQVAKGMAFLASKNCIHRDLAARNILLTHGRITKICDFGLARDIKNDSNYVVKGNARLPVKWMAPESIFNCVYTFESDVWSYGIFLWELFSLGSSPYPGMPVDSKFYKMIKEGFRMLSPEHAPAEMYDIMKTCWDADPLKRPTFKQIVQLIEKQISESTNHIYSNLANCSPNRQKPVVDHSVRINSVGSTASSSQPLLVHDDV
T2 sequence (P10721 26-976 V559D/V654A): as the sequence (P10721 26-976 V559D/T670I) above, with V629A, I645T counted along it

## Cc1cc2c([nH]1)/C=C1\C(=O)Nc3ccc(cc31)-c1c(noc1C)COCCN(C)C2=O [Ex. 128, [3a(4)Z]-6,9,16-trimethyl-1,11-dihydro-2H,13H-1,17-(ethanediylidene)[1,4]oxazolo[4,3-m]dipyrrolo[3,2-f:3′,4′-i][1,4]oxazacyclopentadecine-3,8(5H,9H)-dione]
Kinases [1]
  % Ctrl, FLT1: 85 % Ctrl
Kinases [2]
  % Ctrl, KIT(V559D, V654A): 100 % Ctrl
Kinases [3]
  % Ctrl, FLT3: 66 % Ctrl
  % Ctrl, FLT3-autoinhibited: 89 % Ctrl
Kinases [4]
  % Ctrl, FLT3(R834Q): 68 % Ctrl
Kinases [5]
  % Ctrl, PDGFRB: 85 % Ctrl
Kinases [6]
  % Ctrl, KIT(V559D, T670I): 71 % Ctrl

## Cc1cc2c([nH]1)/C=C1\C(=O)Nc3ccc(cc31)OCCOCCNC2=O [Ex. 129, [16a(17)Z]-2-methyl-6,7,9,10-tetrahydro-1H-12,14-(ethanediylidene)dipyrrolo[3,2-i:3′,4′-l][1,4,7]dioxazacyclopentadecine-4,16(5H,15H)-dione]
Kinases [1]
  % Ctrl, FLT1: 99 % Ctrl
Kinases [2]
  % Ctrl, KIT(V559D, V654A): 98 % Ctrl
Kinases [3]
  % Ctrl, FLT3: 100 % Ctrl
  % Ctrl, FLT3-autoinhibited: 98 % Ctrl
Kinases [4]
  % Ctrl, FLT3(R834Q): 84 % Ctrl
Kinases [5]
  % Ctrl, PDGFRB: 100 % Ctrl
Kinases [6]
  % Ctrl, KIT(V559D, T670I): 100 % Ctrl

## Cc1cc2c([nH]1)/C=C1\C(=O)Nc3cc(Cl)c(cc31)OCCOCCN(C)C2=O [Ex. 131, [16a(17)Z]-19-chloro-2,5-dimethyl-6,7,9,10-tetrahydro-1H-12,14-(ethanediylidene)dipyrrolo[3,2-i:3′,4′-l][1,4,7]dioxazacyclopentadecine-4,16(5H,15H)-dione]
Kinases [1]
  % Ctrl, FLT1: 4 % Ctrl
Kinases [2]
  % Ctrl, KIT(V559D, V654A): 12 % Ctrl
Kinases [3]
  % Ctrl, FLT3: 0.6 % Ctrl
  % Ctrl, FLT3-autoinhibited: 5.1 % Ctrl
Kinases [4]
  % Ctrl, FLT3(R834Q): 6.6 % Ctrl
Kinases [5]
  % Ctrl, PDGFRB: 1.4 % Ctrl
Kinases [6]
  % Ctrl, KIT(V559D, T670I): 0.05 % Ctrl

## Cc1cc2c([nH]1)/C=C1\C(=O)Nc3cc(Cl)c(cc31)OCCO[C@@H](C(=O)NC1CNC1)CN(C)C2=O [Ex. 133, [7R,16a(17)Z]-N-(azetidin-3-yl)-19-chloro-2,5-dimethyl-4,16-dioxo-4,5,6,7,9,10,15,16-octahydro-1H-12,14-(ethanediylidene)dipyrrolo[3,2-i:3′,4′-l][1,4,7]dioxazacyclopentadecine-7-carboxamide]
Kinases [1]
  % Ctrl, FLT1: 89 % Ctrl
Kinases [2]
  % Ctrl, KIT(V559D, V654A): 83 % Ctrl
Kinases [3]
  % Ctrl, FLT3: 48 % Ctrl
  % Ctrl, FLT3-autoinhibited: 95 % Ctrl
Kinases [4]
  % Ctrl, FLT3(R834Q): 49 % Ctrl
Kinases [5]
  % Ctrl, PDGFRB: 60 % Ctrl
Kinases [6]
  % Ctrl, KIT(V559D, T670I): 7.4 % Ctrl

## Cc1cc2c([nH]1)/C=C1\C(=O)Nc3cc(Cl)c(cc31)OCCO[C@@H](C(=O)NC1CCNCC1)CN(C)C2=O [Ex. 134, [7R,16a(17)Z]-19-chloro-2,5-dimethyl-4,16-dioxo-N-(piperidin-4-yl)-4,5,6,7,9,10,15,16-octahydro-1H-12,14-(ethaneidylidene)dipyrrolo[3,2-i:3′,4′-l][1,4,7]dioxazacyclopentadecine-7-carboxamide]
Kinases [1]
  % Ctrl, FLT1: 97 % Ctrl
Kinases [2]
  % Ctrl, KIT(V559D, V654A): 64 % Ctrl
Kinases [3]
  % Ctrl, FLT3: 48 % Ctrl
  % Ctrl, FLT3-autoinhibited: 95 % Ctrl
Kinases [4]
  % Ctrl, FLT3(R834Q): 59 % Ctrl
Kinases [5]
  % Ctrl, PDGFRB: 66 % Ctrl
Kinases [6]
  % Ctrl, KIT(V559D, T670I): 3.9 % Ctrl

## CNC(=O)[C@H]1CN(C)C(=O)c2cc(C)[nH]c2/C=C2\C(=O)Nc3cc(Cl)c(cc32)OCCO1 [Ex. 135, [7R,16a(17)Z]-19-chloro-N,2,5-trimethyl-4,16-dioxo-4,5,6,7,9,10,15,16-octahydro-1H-12,14-(ethanediylidene)dipyrrolo[3,2-i:3′,4′-l][1,4,7]dioxazacyclopentadecine-7-carboxamide]
Kinases [1]
  % Ctrl, FLT1: 85 % Ctrl
Kinases [2]
  % Ctrl, KIT(V559D, V654A): 59 % Ctrl
Kinases [3]
  % Ctrl, FLT3: 57 % Ctrl
  % Ctrl, FLT3-autoinhibited: 89 % Ctrl
Kinases [4]
  % Ctrl, FLT3(R834Q): 63 % Ctrl
Kinases [5]
  % Ctrl, PDGFRB: 80 % Ctrl
Kinases [6]
  % Ctrl, KIT(V559D, T670I): 6.3 % Ctrl

## Cc1cc2c([nH]1)/C=C1\C(=O)Nc3cc(Cl)c(cc31)OCCO[C@@H](C(=O)N[C@@H]1CCNC1)CN(C)C2=O [Ex. 136, [7R,16a(17)Z]-19-chloro-2,5-dimethyl-4,16-dioxo-N-[(3R)-pyrrolidin-3-yl]-4,5,6,7,9,10,15,16-octahydro-1H-12,14-(ethanediylidene)dipyrrolo[3,2-i:3′,4′-l][1,4,7]dioxazacyclopentadecine-7-carboxamide]
Kinases [1]
  % Ctrl, FLT1: 97 % Ctrl
Kinases [2]
  % Ctrl, KIT(V559D, V654A): 54 % Ctrl
Kinases [3]
  % Ctrl, FLT3: 36 % Ctrl
  % Ctrl, FLT3-autoinhibited: 97 % Ctrl
Kinases [4]
  % Ctrl, FLT3(R834Q): 50 % Ctrl
Kinases [5]
  % Ctrl, PDGFRB: 38 % Ctrl
Kinases [6]
  % Ctrl, KIT(V559D, T670I): 3.2 % Ctrl

## Cc1cc2c([nH]1)/C=C1\C(=O)Nc3cc(Cl)c(cc31)OCCO[C@@H](C(=O)N(C)C)CN(C)C2=O [Ex. 137, [7R,16a(17)Z]-19-chloro-N,N,2,5-tetramethyl-4,16-dioxo-4,5,6,7,9,10,15,16-octahydro-1H-12,14-(ethanediylidene)dipyrrolo[3,2-i:3′,4′-l][1,4,7]dioxazacyclopentadecine-7-carboxamide]
Kinases [1]
  % Ctrl, FLT1: 88 % Ctrl
Kinases [2]
  % Ctrl, KIT(V559D, V654A): 73 % Ctrl
Kinases [3]
  % Ctrl, FLT3: 55 % Ctrl
  % Ctrl, FLT3-autoinhibited: 77 % Ctrl
Kinases [4]
  % Ctrl, FLT3(R834Q): 65 % Ctrl
Kinases [5]
  % Ctrl, PDGFRB: 90 % Ctrl
Kinases [6]
  % Ctrl, KIT(V559D, T670I): 27 % Ctrl
